Assay results taken from patent US20170231966A1, “INHIBITION OF IL-2 PRODUCTION” (AYUMI PHARMACEUTICAL CORPORATION, priority 2013, published 2017).
Counter-ions that a name gives are not always drawn.

System: transcriptional activation of IL-2
Test: IL-2 transcriptional activation Luciferase Assay (IL-2 Gene Promoter Reporter Vector) in A23187-stimulated Jurkat cells
Type: cell-based, human
Conditions: for Action on A23187-accelerated transcriptional activation of IL-2 (in words) / Inhibition ratio (transcriptional activation of IL-2), Table 2 / Inhibiting ratio of IL-2 transcriptional activation: A23187-stimulated Jurkat cells; for Luc activity value, No stimulation / Luc activity value, Stimulated by A23187: Jurkat cells, 24 hours, average ± standard deviation, n=3; for Luc activity value, No stimulation: no A23187, DMSO = 1; for Luc activity value, Stimulated by A23187: A23187 0.3 μM, unstimulated DMSO = 1

For `CCOCCN(CCCOc1ccc(OC)cc1C1Sc2cc(Cl)ccc2N1C(C)=O)C(C)C.Cl` (racemic) [Compound 3, (±)-3-acetyl-6-chloro-2-[2-(3-(N-(2-ethoxyethyl)-N-isopropylamino)propoxy)-5-methoxyphenyl]benzothiazoline hydrochloride], the “Action on A23187-accelerated transcriptional activation of IL-2 (in words)” value (“Action” below) was “inhibited transcriptional activation of IL-2” and the “Inhibition ratio (transcriptional activation of IL-2), Table 2” value (“Inhibition ratio” for short) (compound 10 μM) was 77%.

With `CCOCCN(CCCOc1ccc(OC)cc1C1Sc2cc(Cl)ccc2N1C(C)=O)C(C)C` (single isomer, unassigned; (+)) [Compound 2, (+)-3-acetyl-6-chloro-2-[2-(3-(N-(2-ethoxyethyl)-N-isopropylamino)propoxy)-5-methoxyphenyl]benzothiazoline (+O,O′-diacetyl-L-tartaric acid salt] the “Action” value was “statistically significant inhibiting action”, the “Luc activity value, No stimulation” value (compound 0.3 μM) was 0.8842 ± 0.1143 and the “Luc activity value, Stimulated by A23187” value (compound 0.3 μM) was 81.9510 ± 30.4537. The “Luc activity value, No stimulation” value (compound 1 μM) was 0.9410 ± 0.0598, the “Luc activity value, Stimulated by A23187” value (compound 1 μM) was 65.0761 ± 13.2402 and the “Luc activity value, No stimulation” value (compound 10 μM) was 0.9469 ± 0.0928. For the same molecule, the “Luc activity value, Stimulated by A23187” value (compound 10 μM) was 27.5064 ± 29.2861, the “Inhibiting ratio of IL-2 transcriptional activation” value (from here on “Inhibiting ratio”) (compound 0.3 μM) was 12% and the “Inhibiting ratio” value (compound 1 μM) was 30%. For the same molecule, the “Inhibiting ratio” value (compound 10 μM) was 70%.

`COc1ccc(OCCCN(CCO)C(C)C)c(C2Sc3cc(Cl)ccc3N2C(C)=O)c1.Cl` (single isomer, unassigned; (+)) [Compound 4, (+)-3-acetyl-6-chloro-2-[2-(3-(N-(2-hydroxyethyl)-N-isopropylamino)propoxy)-5-methoxyphenyl]benzothiazoline hydrochloride] was tested, and the “Action” value was “inhibited transcriptional activation of IL-2” and the “Inhibition ratio” value (compound 10 μM) was 38%.

With `CN(C(=O)C(c1ccccc1)c1ccccc1)[C@H](CN1CC[C@H](O)C1)c1ccccc1` [Asimadoline, asimadoline, reference compound] the “Inhibition ratio” value (compound 10 μM) was 19%.

For `COCCN(CCCOc1ccc(OC)cc1C1Sc2cc(Cl)ccc2N1C(C)=O)C(C)C` [Compound 5, (+)-3-acetyl-6-chloro-2-[2-(3-(N-isopropyl-N-(2-methoxyethyl)amino)propoxy)-5-methoxyphenyl]benzothiazoline (−)-O,O′-diacetyl-L-tartaric acid salt], the “Action” value was “inhibited transcriptional activation of IL-2” and the “Inhibition ratio” value (compound 10 μM) was 72%.
